Measurements reported in patent US4880922A, “Carbapenems with quaternized heterothioalkylthio substitution at position 2” (Bristol-Myers Company, priority 1985, dated 1989).
Values after ≈ are worked out from the molar mass of the structure shown.

Legend:
[1] = system: Pr. mirabilis; experiment: In vitro antibacterial activity, MIC by tube dilution; assay type: cell-based; settings: Proteus mirabilis, Nutrient Broth, overnight, 37° C.
[2] = system: E. coli; experiment: as above; assay type: cell-based; settings: Escherichia coli, Nutrient Broth, overnight, 37° C.
[3] = system: Str. pneumoniae; experiment: as above; assay type: cell-based; settings: Streptococcus pneumoniae, Nutrient Broth, overnight, 37° C.
[4] = Urinary recovery after intramuscular administration to mice; assay type: in vivo; settings: mouse, urine, im, 20 mg/kg, 0-24 hours after administration, 0.1 M phosphate buffer pH 7, single test, 4 mice, read-out: Urinary recovery, Percentage of Dose Recovered
Text: (§1) Compounds were solubilized in 0.1 M phosphate buffer pH 7. Values are fro
(§2) a single test; 4 mice per compound.

[5] = system: Ser. marcescens; experiment: In vitro antibacterial activity, MIC by tube dilution; assay type: cell-based; settings: Serratia marcescens, Nutrient Broth, overnight, 37° C.
[6] = system: Ps. aeruginosa; experiment: as above; assay type: cell-based; settings: Pseudomonas aeruginosa, Nutrient Broth, overnight, 37° C.
[7] = system: Pr. rettgeri; experiment: as above; assay type: cell-based; settings: Providencia rettgeri, Nutrient Broth, overnight, 37° C.
[8] = system: Ps. aeruginosa; experiment: Protective effect in the intramuscular treatment of infected mice; assay type: in vivo; settings: Pseudomonas aeruginosa, im, I.M., column of the in vitro table, read-out: PD50 I.M.
Experimental: The in vivo therapeutic efficacy of the compound of Example 1 after intramuscular administration to mice experimentally infected with various organisms are shown in the following Table. The PD50 (dose in mg/kg required to give protection to 50% of the infected mice) is indicated.
Treatment Schedule: Mice were treated i.m. with drugs 0 and 2 hours

[9] = system: Staph. aureus; experiment: In vitro antibacterial activity, MIC by tube dilution; assay type: cell-based; settings: Staphylococcus aureus, Nutrient Broth, overnight, 37° C.
[10] = system: Pr. vulgaris; experiment: as above; assay type: cell-based; settings: Proteus vulgaris, Nutrient Broth, overnight, 37° C.
[11] = system: Ps. (Carb-R); experiment: as above; assay type: cell-based; settings: Nutrient Broth, overnight, 37° C.
[12] = system: Str. faecalis; experiment: as above; assay type: cell-based; settings: Enterococcus faecalis, Nutrient Broth, overnight, 37° C.
[13] = system: Pr. morganii; experiment: as above; assay type: cell-based; settings: Morganella morganii, Nutrient Broth, overnight, 37° C.
[14] = system: K. pneumoniae; experiment: as above; assay type: cell-based; settings: Klebsiella pneumoniae, Nutrient Broth, overnight, 37° C.
[15] = system: Staph. aureus (Pen-R); experiment: as above; assay type: cell-based; settings: Staphylococcus aureus, Nutrient Broth, overnight, 37° C.
[16] = system: Ent. cloacae; experiment: as above; assay type: cell-based; settings: Enterobacter cloacae, Nutrient Broth, overnight, 37° C.
[17] = Blood levels in mice after intramuscular administration; assay type: in vivo; settings: mouse, im, 20 mg/kg
Text: as §1, §2

[18] = system: Str. pyogenes; experiment: In vitro antibacterial activity, MIC by tube dilution; assay type: cell-based; settings: Streptococcus pyogenes, Nutrient Broth, overnight, 37° C.

Compound: C[C@@H](O)[C@H]1C(=O)N2C(C(=O)[O-])=C(SCCSc3cccc[n+]3C)C[C@H]12 [Example 1, (5R,6S) 6-(1R-hydroxyethyl)-3-[(1-methylpyridinium-2-yl)-2-thioethylthio]-7-oxo-1-azabicyclo (3.2.0)hept-2-ene-2-carboxylate]
- MIC [1]: 0.016 µg/mL (≈ 0.0421 µM)
- MIC ([2]; first line (strain not named)): 0.008 µg/mL (≈ 0.021 µM)
- MIC ([2]; second line (strain not named)): 0.016 µg/mL (≈ 0.0421 µM)
- MIC [3]: 0.0005 µg/mL (≈ 0.00131 µM)
- dose excreted at 24 h [4]: 31.5%
- MIC [5]: 0.03 µg/mL (≈ 0.0788 µM)
- MIC [6]: 8 µg/mL (≈ 21 µM)
- MIC [7]: 0.13 µg/mL (≈ 0.342 µM)
- ED50 [8]: 2.9 mg/kg
- MIC ([9]; Staph. aureus + 50% serum): 0.008 µg/mL
- MIC ([9]; Staph. aureus): 0.004 µg/mL (≈ 0.0105 µM)
- MIC [10]: 0.016 µg/mL (≈ 0.0421 µM)
- MIC [11]: 2 µg/mL (≈ 5.26 µM)
- MIC [12]: 0.13 µg/mL (≈ 0.342 µM)
- MIC [13]: 0.06 µg/mL (≈ 0.158 µM)
- MIC ([14]; first line (strain not named)): 0.03 µg/mL (≈ 0.0788 µM)
- MIC ([14]; second line (strain not named)): 0.06 µg/mL (≈ 0.158 µM)
- MIC [15]: 0.004 µg/mL (≈ 0.0105 µM)
- MIC ([16]; first line (strain not named)): 0.06 µg/mL (≈ 0.158 µM)
- MIC ([16]; second line (strain not named)): 0.13 µg/mL (≈ 0.342 µM)
- AUC [17]: 4100 ng·h/mL
- concentration at 10 min ([17]; 10 min after administration, read-out: Blood Level): 11100 ng/mL
- concentration at 20 min ([17]; 20 min after administration, read-out: Blood Level): 8000 ng/mL
- concentration at 0.5 h ([17]; 30 min after administration, read-out: Blood Level): 3600 ng/mL
- concentration at 0.75 h ([17]; 45 min after administration, read-out: Blood Level): 1000 ng/mL
- concentration at 1 h ([17]; 60 min after administration, read-out: Blood Level): < 300 ng/mL
- concentration at 1.5 h ([17]; 90 min after administration, read-out: Blood Level): < 300 ng/mL
- half-life ([17]; read-out: t1/2 (half-life)): 8 min
- MIC [18]: 0.0005 µg/mL (≈ 0.00131 µM)
